Our source for the TGI and GI50 values is PubChem BioAssay (NCI).

“And” between values parts separate entries of the source, which are not always exact repeats. Equal entries are not always repeated.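 These data come from cells grown in 96-well plates and exposed to compound for 48 hours at five concentrations. GI50 marks 50% less growth. TGI denotes the concentration required for complete inhibition of growth.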

Among the test systems are NCI-H226 lung; U251 CNS; OVCAR-5 ovarian; KM12 colon; HS 578T breast; T-47D breast; SW-620 colon; HT29 colon.
Holding throughout (assay): NCI anticancer screen, dose series, 48 h

Take `C=C(C)C(=O)O[C@@H]1C[C@@]2(C)O[C@@H]2C[C@H](O)/C(C)=C/[C@H]2OC(=O)C(=C)[C@@H]21`: the TGI in the test with NCI-H226 lung, in the test with U251 CNS, with OVCAR-5 ovarian, in the test on KM12 colon, with HS 578T breast and in the test with T-47D breast was > 100 µM each time. In addition, the TGI was 38.9 µM in the test on SW-620 colon and > 100 µM in the test on HT29 colon.

With `CC(=O)N[C@@H](Cc1ccc(OP(=O)(O)O)cc1)C(=O)N[C@H]1CCC(=O)N2CCC[C@@H](C(=O)Nc3cccc4ccccc34)N2C1=O`, the GI50 in the test with NCI-H226 lung, in the test on U251 CNS, in the test with OVCAR-5 ovarian, in the test on KM12 colon, with HS 578T breast and with T-47D breast was > 25 µM in each case. For the same compound, the GI50 with SW-620 colon and in the test with HT29 colon was > 25 µM in each case. The TGI in the test on NCI-H226 lung, in the test on U251 CNS, with OVCAR-5 ovarian, in the test on KM12 colon, with HS 578T breast and in the test with T-47D breast was > 25 µM each time. Also, the TGI in the test with SW-620 colon and in the test with HT29 colon was > 25 µM each time.

Consider `NC(=S)N/N=C1\c2cc(Cl)ccc2-c2c1cc(Cl)cc2[N+](=O)[O-]`, for which the GI50 was 5.25 µM with NCI-H226 lung; 2.99 µM in the test with U251 CNS; 11 µM in the test with OVCAR-5 ovarian; 5.14 µM in the test with KM12 colon; 18.8 µM in the test with HS 578T breast; 2.07 µM with T-47D breast. The results for the GI50 with SW-620 colon and in the test on HT29 colon were 10.7 µM and 10 µM, respectively. The TGI with NCI-H226 lung was > 100 µM; with U251 CNS it was 14.9 µM; in the test with OVCAR-5 ovarian it was > 100 µM; in the test with KM12 colon, 88.8 µM; in the test on HS 578T breast, > 100 µM; in the test with T-47D breast it was 7.65 µM. The TGI in the test on SW-620 colon was > 100 µM; in the test on HT29 colon, 61.2 µM.

As for `NC(=S)N/N=C\c1nccc2c(C(F)(F)F)cccc12`, the GI50 in the test with NCI-H226 lung was 0.259 µM; in the test with U251 CNS, 0.224 µM; in the test on OVCAR-5 ovarian it was 0.445 µM; in the test on KM12 colon, 0.356 µM; in the test on HS 578T breast, 1.36 µM; with T-47D breast, 0.335 µM. Besides, the GI50 in the test with SW-620 colon is 0.463 µM; in the test with HT29 colon it was 0.524 µM. The TGI was 2.39 µM with NCI-H226 lung; 8.4 µM in the test on U251 CNS; 27.6 µM with OVCAR-5 ovarian; 16.9 µM in the test on KM12 colon; > 58.8 µM in the test on HS 578T breast; 25.7 µM in the test with T-47D breast. Also, the TGI with SW-620 colon is 17.4 µM; in the test on HT29 colon it was 16.5 µM.

Take `Cc1cc2c(cc1C)[n+](=O)c(C(=O)c1ccccc1)c(C(F)F)n2[O-]`: the GI50 was 25.5 µM in the test on NCI-H226 lung; 12.7 µM with U251 CNS; 36.4 µM with OVCAR-5 ovarian; 20.5 µM with KM12 colon; 32 µM with HS 578T breast; 30.3 µM in the test on T-47D breast. The GI50 in the test on SW-620 colon was 21.2 µM; in the test on HT29 colon, 17.2 µM. The TGI with NCI-H226 lung was 72.9 µM; in the test with U251 CNS, > 100 µM; in the test with OVCAR-5 ovarian, > 100 µM; in the test on KM12 colon it was > 100 µM; with HS 578T breast, > 100 µM; in the test with T-47D breast, > 100 µM. For the same compound, the TGI with SW-620 colon and in the test with HT29 colon was > 100 µM in each case.

Take `C=CC(=O)Nc1cc(Nc2nccc(-c3cn(C)c4ccccc34)n2)c(OC)cc1N(C)CCN(C)C`: the GI50 in the test on NCI-H226 lung is 3.93 µM and 1.39 µM; in the test with U251 CNS it was 1.63 µM and 1.71 µM; in the test with OVCAR-5 ovarian, 1.3 µM and 1.29 µM; in the test on KM12 colon, 2.31 µM and 2.12 µM; with HS 578T breast, 3.32 µM and 1.89 µM; in the test with T-47D breast, 0.815 µM and 0.363 µM. Moreover, the GI50 in the test with SW-620 colon was 1.83 µM; in the test on HT29 colon, 1.84 µM and 1.51 µM. Besides, the TGI with NCI-H226 lung is 13.1 µM and 3.4 µM; in the test with U251 CNS, 3.26 µM and 3.35 µM; in the test on OVCAR-5 ovarian, 2.95 µM and 6.55 µM; in the test on KM12 colon, 5.49 µM and 5.41 µM; in the test with HS 578T breast it was 16 µM and 9.69 µM; in the test with T-47D breast, 11.6 µM and > 10 µM. Also, the TGI is 3.76 µM and 4.43 µM with SW-620 colon; 4.07 µM and 3.24 µM with HT29 colon.

In the case of `COc1cc(-c2nn(-c3cccc(NC(=O)c4ccccc4)c3)cc2-c2ccncc2)ccc1Cl`, the GI50 in the test with NCI-H226 lung was 3.3 µM; in the test on U251 CNS it was 0.592 µM; with OVCAR-5 ovarian, 12.8 µM; in the test on KM12 colon it was 0.467 µM; with HS 578T breast it was 0.87 µM; with T-47D breast, 0.843 µM. Further, the GI50 in the test on SW-620 colon was 0.451 µM; with HT29 colon, 0.365 µM. Also, the TGI with NCI-H226 lung was > 100 µM; in the test on U251 CNS, 24.4 µM; in the test on OVCAR-5 ovarian, > 100 µM; with KM12 colon, 96.9 µM; in the test with HS 578T breast it was > 40.9 µM; with T-47D breast, > 100 µM. In addition, the TGI in the test with SW-620 colon was > 36.3 µM; in the test on HT29 colon, > 45 µM.

As to `O=C(NC1CCCCC1)NS(=O)(=O)c1ccc(N2N=C3c4ccccc4CC3C2c2ccc(Cl)cc2)cc1` (stereo unspecified), the GI50 in the test on NCI-H226 lung is 19.8 µM; in the test with U251 CNS, 10.1 µM; with OVCAR-5 ovarian, 25.5 µM; in the test with KM12 colon, 7.9 µM; with HS 578T breast it was 4.61 µM; with T-47D breast, 22.6 µM. The GI50 in the test on SW-620 colon was 10.3 µM; in the test with HT29 colon it was 32.5 µM. Further, the TGI in the test on NCI-H226 lung was 49.1 µM; in the test on U251 CNS, 21.7 µM; in the test on OVCAR-5 ovarian, 80.4 µM; in the test with KM12 colon, 27.9 µM; in the test on HS 578T breast, 37.2 µM; in the test on T-47D breast, > 100 µM. Further, the TGI with SW-620 colon was 24.3 µM; in the test on HT29 colon, > 100 µM.

As to `COc1cc2c(cc1OC)-c1cc(OC)c(OC)cc1C(CN(C)C)C2` (stereo unspecified), the GI50 in the test with NCI-H226 lung is > 10 µM; in the test on U251 CNS, > 10 µM; in the test on OVCAR-5 ovarian, > 10 µM; with KM12 colon it was > 10 µM; in the test on HS 578T breast it was 7.27 µM; in the test with T-47D breast it was > 10 µM. Further, the GI50 with SW-620 colon and in the test on HT29 colon was > 10 µM throughout. Besides, the TGI in the test on NCI-H226 lung, in the test on U251 CNS, with OVCAR-5 ovarian, in the test with KM12 colon, in the test on HS 578T breast and with T-47D breast was > 10 µM in each case. For the same compound, the TGI with SW-620 colon and in the test on HT29 colon was > 10 µM each time.
